Data from PubChem BioAssay (NCI).
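A five-concentration, 48-hour dose response in 96-well plates underlies each endpoint, interpolated linearly between surrounding concentrations. At the GI50, growth is halved. The concentration for full growth arrest is given as TGI.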

How the values were obtained:
Test in all cases: NCI-60 cell line screen, 48 h
OVCAR-4 ovarian = system: OVCAR-4 ovarian
ACHN renal = system: ACHN renal
CAKI-1 renal = system: CAKI-1 renal
NCI-H522 lung = system: NCI-H522 lung
A498 renal = system: A498 renal
RPMI-8226 leukemia = system: RPMI-8226 leukemia
EKVX NSCLC = system: EKVX NSCLC
HCT-15 colon = system: HCT-15 colon

Compound | GI50 (OVCAR-4 ovarian) [µM] | TGI (OVCAR-4 ovarian) [µM] | GI50 (ACHN renal) [µM] | TGI (ACHN renal) [µM] | GI50 (CAKI-1 renal) [µM] | TGI (CAKI-1 renal) [µM] | GI50 (NCI-H522 lung) [µM] | TGI (NCI-H522 lung) [µM] | GI50 (A498 renal) [µM] | TGI (A498 renal) [µM] | GI50 (RPMI-8226 leukemia) [µM] | TGI (RPMI-8226 leukemia) [µM] | GI50 (EKVX NSCLC) [µM] | TGI (EKVX NSCLC) [µM] | GI50 (HCT-15 colon) [µM] | TGI (HCT-15 colon) [µM]
CN(C)c1ccc(C(O)C2=CC(=O)c3ccccc3C2=O)cc1 (stereo not drawn) | 4.51 | > 100 | 3.69 | 31.8 | 7.87 | 32.1 | 2.82 | 9.2 | 15.1 | 63 | 3.69 | 66.8 | 5.37 | 92.9 | 4.3 | > 100
CC(C)OP(=O)(O)c1ncc(-c2ccc(C(F)(F)F)cc2)c(NC2CCCCCC2)n1 | 61.2 | > 100 | > 100 | > 100 | > 100 | > 100 | 38.5 | > 100 | > 100 | > 100 | 20.9 | > 100 |  |  | > 100 | > 100
COc1ccc(/C=C/C(=O)c2cc3c(N)c(C(=O)Nc4ccc(OC)cc4)sc3nc2C)cc1 | 0.324 | > 50 | 0.397 | > 50 | 0.593 | > 50 | 0.178 | > 26.5 | 0.108 | 0.41 | 0.348 | > 34 | 1.3 | > 50 | 0.391 | > 50
CCOC1Oc2ccc(C)cc2C(=O)/C1=C\Nc1ccc(S(N)(=O)=O)cc1 (stereo not drawn) | 15.2 | > 50 | 12.6 | 45 | 10.6 | 23.3 | > 50 | > 50 | 17 | 46.5 | 6.21 | 25.2 | 9.43 | 31.4 | 12.5 | > 50
COc1ccc2c(c1)C(=O)c1c-2c(OCCN(C)C)nc2cc(OC)c(OC)cc12 | 2.81 | > 100 | 5.21 | 19.3 | 3.68 | 31.6 | 10.6 | > 100 | 13.2 | 99.1 | 1.26 | 5.23 | 22.6 | > 100 | 9.67 | 23.6
C[C@@H]1CCc2ncc(F)cc2[C@H]2CCCN2c2ccn3ncc(c3n2)C(=O)N1 | 62.4 | > 100 | 65.9 | > 100 | 23 | > 100 | 83.7 | > 100 | 12.9 | 42.2 | 94.8 | > 100 | 48.8 | > 100 | 77.1 | > 100
CC1(C)C2CCC13C(=O)C1OC3(C2)C2C(=O)c3c(ccc4c3ccc3ccccc34)C(=O)C12 (stereo not drawn) | 56.1 | > 100 | 57.4 | > 100 | 20 | 80.1 | > 62.1 | > 100 | > 100 | > 100 | 19.2 | > 60 | > 66.3 | > 100 | > 53.5 | > 100
CC(O)[C@H](NC(=O)N[C@@H](CC(N)=O)c1nc(N2CCNCC2)no1)C(=O)O (stereo partly drawn) | > 100 | > 100 | > 100 | > 100 | > 100 | > 100 | > 100 | > 100 |  |  | > 100 | > 100 | > 100 | > 100 | > 100 | > 100
COCC(C(=O)OC1C/C=C/C=C/C(=O)OC(C(C)C(O)C(C)CCC(OC(=O)C(C)N(C)C)C(C)C(OC(C)=O)C(C)/C=C/N(C)C=O)C/C=C/C(OC)CC(C)C/C=C(\C)C(OC)CCC(C)C(O)C1C)N(C)C (stereo not drawn) | 0.00537 | > 0.281 | 0.000173 | > 0.393 | < 0.0001 | 0.007 | < 0.0001 | < 0.0001 | < 0.0001 | < 0.0001 | < 0.0001 | 0.0077 | < 0.0001 | 0.0275 | < 0.0001 | 0.00194
CCn1c(-c2nonc2N)nc2cnc(Oc3cccc(NC(=O)c4ccc(N(C)C)cc4)c3)cc21 | > 25 | > 25 | > 25 | > 25 | 0.688 | > 25 | > 13.8 | > 25 | 4.48 | > 25 | > 25 | > 25 | 2.87 | > 25 | 8.55 | > 25
COc1cc2cc(Oc3cccc(NC(=O)Nc4cc(C(F)(F)F)cc(C(F)(F)F)c4)c3)c(C)nc2cc1OC | 1.22 | 4.44 | 0.39 | 1.69 | 1.41 | 5.1 | 1.25 | 2.95 | 1.6 | 4.29 | 0.406 | 5.51 | 1 | 2.98 | 0.668 | 2.04
COc1cccc(-c2nc3sccn3c2-c2ccnc(NCCCNS(=O)(=O)c3ccccc3)c2)c1 | 2.87 | > 100 | 2.66 | > 100 | 2.81 | > 100 | 2.34 | 15 | 2.92 | > 100 | 1.61 | 4.26 | 3.68 | > 100 | 3.02 | > 100
COc1ccc(C)cc1NC(=S)C#N |  |  |  | > 100 |  | > 100 |  |  |  | > 100 |  | > 100 |  |  |  | > 100
COc1ccc(-c2csc(Nc3cccc(-c4csc(C)n4)c3)n2)cc1 |  |  | 0.859 | 18.6 | 1.15 | > 14 | 1.23 | > 16.4 | 12.6 | 49.2 | 2.52 | > 50 | 3.63 | > 50 | 0.226 | > 47.7
COc1ccc(C2NC(=S)NC3=C2CCOc2c3ccc3ccccc23)cc1 (stereo not drawn) | > 100 | > 100 | 69.3 | > 100 | > 100 | > 100 | 46.6 | > 100 | 16.6 | > 100 | 12.8 | > 100 | 17.4 | > 100 | 21.4 | > 100
